This is an account of results in paper PMC12691742, “Anti-Cancer Outcome of Glucocorticoid Receptor Transrepression by Synephrine Derivatives in Hematological Malignancies” (International Journal of Molecular Sciences, 2025).

For one data set, the system named is P388 murine lymphoma. Briefly: Transplantable P388 murine lymphoma model. To be noted: P388 model; Dex 1 mg/kg, 10S-E2 10 mg/kg i.p. 3 times per week. Type of data set: in vivo, mice. Here is the method: (§1) Figure 5 Pro-apoptotic and anti-cancer effects of synephrine derivatives in vitro and in vivo. (A) Effect of 4S-C2, 8S-E3, 10S-E2, and 13S-G2 on cell cycle progression in K562 and Granta cells after 24 h of incubation. The cells were fixed with ethanol, stained with propidium iodide, and analyzed using flow cytometry. Statistically significant difference compared to control: *—p < 0.05, **—p < 0.01 (n = 3). (B) In vivo anti-cancer activity was evaluated using the transplantable P388 murine lymphoma model. […] Tumor nodule size was measured twice a week using digital calipers. Statistically significant differences compared to the control: * p < 0.05, ** p < 0.01.
The protocol for the experiment was approved by the local N.N. Blokhin National Medical Research Center Ethics Committee and corresponded to the guidelines for the welfare and use of animals in cancer research adopted by The United Kingdom Coordinating Committee on Cancer Prevention Research. P388 cells were injected i.p. into 5-week-old female DBA/2 mice (“Stolbovaya Farm”, Stolbovaya, Russia). After 15 days, the cells were collected from the peritoneum, washed, and resuspended in PBS. For the experiments, 0.1 mL containing 2 million cells obtained from the ascites was inoculated s.c. in 5-week-old female BDF1 mice (“Stolbovaya Farm”, Stolbovaya, Russia). […] Body weight was recorded twice a week for toxicity determination. Tumor size was measured three times per week using digital calipers.

Data set [1] relates to IL1-α and IL6 mRNA expression in K562 and Granta cells. In words: Q-PCR of GR transrepression marker genes. Type of data set: cell-based. Here is the method: Figure 4 Effects of synephrine derivatives on GR transrepression in Granta lymphoma and K562 leukemia cells. (A) K562 and Granta cells stably infected with the lentiviruses bearing the NF-kB luciferase reporter. Cells were incubated for 5 h with the solvent (control), TPA (5 ng/mL), 4S-C2 (10 µM), 8S-E3 (10 µM), 10S-E2 (1 µM), or 13S-G2 (1 µM). Luciferase activity was determined as described in the Materials and Methods section. (B) IL1-α and IL6 mRNA expression in K562 and Granta cells. Q-PCR results were normalized to the expression of the housekeeping gene RPL27 and are presented as the fold change compared to the control. The mean ± SD was calculated for three individual samples/condition (n = 3). Statistically significant differences compared to the control: * p < 0.05, ** p < 0.01.
Total RNA isolation from cell cultures and murine bones, reverse transcription, and Q-PCR were performed as described in [36]. Primers were designed using NCBI Primer-BLAST https://www.ncbi.nlm.nih.gov/tools/primer-blast/, accessed on 25 August 2025 (Supplementary Table S1). Results were normalized to the expression of the housekeeping RPL27 и Rpl27 genes. The experiments were performed in triplicate.

The subject of a further data set is K562 cells. Briefly: Cell cycle analysis by PI flow cytometry in K562 cells. Type of data set: cell-based. To be noted: 24 h, 10S-E2 6.25 µM. Here is the method:
as §1
The distribution of cells by cell cycle phases was evaluated using propidium iodide (PI) staining, as described in [19]. […] After incubation, the cells were resuspended in 70% ethanol and fixed for 2h at 4 °C. Cells were then washed twice with cold PBS, pH 7.4, and stained with 500 µL of cold propidium iodide (PI) solution (50 µg/mL PI, 1% Triton X-100, and 100 µg/mL RNase A in PBS). The cell cycle distribution of cells in samples was analyzed using an FACSCalibur Flow Cytometer (“BD Biosciences”, San Jose, CA, USA). The experiments were performed in triplicate.
(A flow cytometer gives signals particle by particle.)

The next data set has as its target T1, GR (Homo sapiens, UniProt P04150).
T1 construct: endogenous in cells; host or cells: K562
T1 sequence (P04150 1-777): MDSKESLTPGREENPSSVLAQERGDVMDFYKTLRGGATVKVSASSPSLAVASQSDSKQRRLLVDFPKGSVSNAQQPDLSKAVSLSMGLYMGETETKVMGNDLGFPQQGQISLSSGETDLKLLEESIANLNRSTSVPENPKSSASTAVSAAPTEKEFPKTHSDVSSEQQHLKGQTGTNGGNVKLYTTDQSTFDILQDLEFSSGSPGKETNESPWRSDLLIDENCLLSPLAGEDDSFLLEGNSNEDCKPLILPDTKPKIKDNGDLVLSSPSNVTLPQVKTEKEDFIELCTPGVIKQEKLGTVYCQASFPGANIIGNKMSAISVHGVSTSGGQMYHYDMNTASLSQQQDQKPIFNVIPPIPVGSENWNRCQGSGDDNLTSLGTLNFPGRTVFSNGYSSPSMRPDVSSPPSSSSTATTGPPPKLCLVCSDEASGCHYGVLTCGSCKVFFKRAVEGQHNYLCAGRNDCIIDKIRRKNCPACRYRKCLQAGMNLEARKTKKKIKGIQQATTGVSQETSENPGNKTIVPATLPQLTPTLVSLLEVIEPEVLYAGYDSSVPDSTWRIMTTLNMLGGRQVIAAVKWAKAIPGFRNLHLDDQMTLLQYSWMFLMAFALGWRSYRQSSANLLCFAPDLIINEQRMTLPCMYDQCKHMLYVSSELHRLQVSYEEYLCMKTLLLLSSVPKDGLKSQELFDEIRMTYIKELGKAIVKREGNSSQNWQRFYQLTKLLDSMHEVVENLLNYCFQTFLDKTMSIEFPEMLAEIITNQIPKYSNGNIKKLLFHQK
In words: GR radioligand binding assay, competition with [3H]Dex in K562 cells. Here is the method:
(A,B). […] The stability of the complex was simulated using molecular dynamics in the GROMACS program. (C) GR binding affinity was estimated using a radioligand binding assay. […] Cell lysate radioactivity was measured using a RackBeta 1215 LC (LKB Wallac, Turku, Finland) spectrometer for 4 min. […] The experiments were performed in triplicate (n = 3).
After 90 min of incubation, the cells were washed twice by centrifugation in cold serum-free medium (1500 rpm, 5 min). The cells were then lysed with RIPA buffer (50 mM Tris (pH 8.0), 150 mM NaCl, 1 mM ethylenediaminetetraacetic acid, 0.1% sodium dodecyl sulfate, 0.5% sodium deoxycholate, 1% triton-X100, 10% glycerin, and protease inhibitor) for 20 min. Lysates were transferred to scintillation liquid, and radioactivity was measured using a RackBeta 1215 LC spectrometer for 4 min. […] IC50 was determined using GraphPad Prism software, Ver.7.0. […] “Top” meant the highest value in dpm and was equal to 100%, while the “bottom” was considered as the lowest value (0%). […] The IC50 values for each ligand were determined by plotting these curves. The experiments were performed in triplicate.

`CCCCCCNCC(O)c1ccc(OCc2ccccc2)cc1` (stereo not drawn) [10S-E2, 1-[4-(benzyloxy)phenyl]-2-(hexylamino)ethanol]: the “animal body weight change vs control” value in the data set on P388 murine lymphoma was “no statisticall y si gnificant differences”. In addition, the “expression of GR TR marker genes IL1-α and IL6” value in data set [1] is reported as “downregulation”. Further, in the data set on K562 cells, the induction of apoptosis entry is reported as “did not induce apoptosis”, the “number of cells in the G1 phase” value is given as “decrease in the number of cells in the G1 phase” and the “number of replicating cells in the S phase” value is reported as “increased the number of replicating cells in the S phase”. In addition, on GR, the IC50 was 560 nM.

By IC50 is commonly meant the concentration at which inhibition is half-maximal. The low end stands for greater potency in that assay, the high end for weaker potency in that assay.
